According to patent publication US8778923B2, “GLP-1 receptor modulators” (Receptos, Inc., priority 2011, dated 2014):
Structures can show the parent of a compound that is named as a salt.

Biological target: T1, GLP-1R (Homo sapiens, UniProt P43220)
T1 construct: host or cells: CRE-bla CHO-K1
Test: EC20 GLP-1(9-36) PAM cAMP assay: dose response of compound in the presence of fixed concentration of GLP-1(9-36)
Assay type: cell-based
Conditions: GLP-1R CRE-bla CHO-K1 cells, compound dose response in presence of fixed concentration of GLP-1(9-36)
Summary of the method: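 Positive allosteric modulation read as cAMP rise: 12-point compound titration combined with a fixed EC20 level of GLP-1(9-36) on GLP-1R CHO-K1 cells, IBMX present, 30 min at 37 °C. Luminescent HitHunter signal converted to cAMP; nonlinear fit gave EC50 and Emax.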

T1 sequence (P43220 24-463): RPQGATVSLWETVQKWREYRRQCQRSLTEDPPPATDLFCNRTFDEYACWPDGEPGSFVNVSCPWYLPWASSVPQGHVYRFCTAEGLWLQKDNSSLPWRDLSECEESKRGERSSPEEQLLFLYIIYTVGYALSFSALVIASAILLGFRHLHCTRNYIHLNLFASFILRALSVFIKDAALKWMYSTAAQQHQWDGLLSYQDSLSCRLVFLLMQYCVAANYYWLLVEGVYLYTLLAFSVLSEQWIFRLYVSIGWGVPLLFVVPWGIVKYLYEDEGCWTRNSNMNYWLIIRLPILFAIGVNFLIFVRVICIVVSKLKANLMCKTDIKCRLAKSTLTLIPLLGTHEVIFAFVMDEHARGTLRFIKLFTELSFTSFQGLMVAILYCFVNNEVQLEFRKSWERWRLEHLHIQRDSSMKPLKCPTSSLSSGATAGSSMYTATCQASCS
T1 sequence (P01275 100-127 partner limits assumed): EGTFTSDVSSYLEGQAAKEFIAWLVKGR

Q: For `CC(C)(C)c1ccc(-c2cnc(-c3ccc(C[C@H](NC(=O)c4ccc(C(C)(C)C)s4)C(=O)O)cc3)cn2)cc1` [Compound 282], which EC50 is on record?
A: 0.8 to 2.5 µM

Q: Which EC50 does the source give for `CCCCCCCOc1ccc(-c2ccc(-c3ccc(C[C@H](NC(=O)c4ccc(C(C)(C)C)s4)C(=O)NCC(=O)O)cc3)nn2)cc1` [Compound 283] here?
A: 5 to 10 µM

Q: For `CCCCCCCOc1ccc(-c2cnc(-c3ccc(C[C@H](NC(=O)c4ccc(C(C)(C)C)s4)C(=O)NCC(=O)O)cc3)cn2)cc1` [Compound 284], which EC50 is on record?
A: 0.8 to 2.5 µM

Q: For `CCCCCCCOc1ccc(-c2ccc(-c3ccc(C[C@H](NC(=O)c4ccc(C(C)(C)C)s4)C(=O)NCC(=O)O)cc3)nc2)cc1` [Compound 285], which EC50 is on record?
A: 0.8 to 2.5 µM

Q: Which EC50 does the source give for `CCCCCCCOc1ccc(-c2c[nH]c(-c3ccc(C[C@H](NC(=O)c4ccc(C(C)(C)C)cc4)C(=O)O)cc3)n2)cc1` [Compound 286, (S)-2-(4-(tert-butyl)benzamido)-3-(4-(4-(4-(heptyloxy)phenyl)-1H-imidazol-2-yl)phenyl)propanoic acid hydrochloride] here?
A: 2.5 to 5 µM

Q: How did the EC50 turn out when `CCCCCCCOc1ccc(-n2cnc(-c3ccc(C[C@H](NC(=O)c4ccc(C(C)(C)C)cc4)C(=O)O)cc3)c2)cc1` [Compound 287, (S)-2-(4-(tert-butyl)benzamido)-3-(4-(1-(4-(heptyloxy)phenyl)-1H-imidazol-4-yl)phenyl)propanoic acid] was run?
A: 5 to 10 µM

Q: With `Cc1ccc(-c2ccc(-n3cc(-c4ccc(C[C@H](NC(=O)c5ccc(C(C)(C)C)cc5)C(=O)O)cc4)cn3)cc2)cc1` [Compound 288, (S)-2-(4-(tert-butyl)benzamido)-3-(4-(1-(4′-methyl-[1,1′-biphenyl]-4-yl)-1H-pyrazol-4-yl)phenyl)propanoic acid] as the compound, how does the EC50 read?
A: 2.5 to 5 µM

Q: For `CCCCCCCOc1ccc(-c2cnc(-c3ccc(C[C@@H](CC(=O)O)NC(=O)c4ccc(C(C)(C)C)cc4)cc3)nc2)cc1` [Compound 291, (S)-3-(4-(tert-butyl)benzamido)-4-(4-(5-(4-(heptyloxy)phenyl)pyrimidin-2-yl)phenyl)butanoic acid], which EC50 is on record?
A: 0.8 to 2.5 µM

Q: For `CCCCCCCOc1ccc(-c2cnc(-c3ccc(C[C@H](NC(=O)c4ccc(C(C)(C)C)cc4)C(=O)O)cc3)nc2OC)cc1` [Compound 292, (S)-2-(4-(tert-butyl)benzamido)-3-(4-(5-(4-(heptyloxy)phenyl)-4-methoxypyrimidin-2-yl)phenyl)propanoic acid], which EC50 is on record?
A: 0.8 to 2.5 µM

Q: `CCCCCCCOc1ccc(-c2cnc(-c3ccc(C[C@H](NC(=O)c4ccc(C(C)(C)C)cc4)C(=O)O)cc3)nc2N(C)C)cc1` [Compound 293] was tested. Which EC50 did it give?
A: 2.5 to 5 µM

Q: With `CCCCCCCOc1ccc(-c2cnc(-c3ccc(C[C@H](NC(=O)c4ccc(C(C)(C)C)cc4)C(=O)O)cc3)cc2C)cc1` [Compound 294] as the compound, how does the EC50 read?
A: 0.8 to 2.5 µM

Q: With `CCCCCCCOc1ccc(-c2cnc(-c3ccc(C[C@H](NC(=O)c4ccc(C(C)(C)C)cc4)C(=O)O)cc3)cc2C(F)(F)F)cc1` [Compound 295] as the compound, how does the EC50 read?
A: 0.8 to 2.5 µM

Q: Which EC50 does the source give for `CCCCCCCOc1ccc(-c2cnc(-c3ccc(C[C@H](NC(=O)c4coc(C(C)(C)C)n4)C(=O)O)cc3)nc2)cc1` [Compound 296] here?
A: 0.8 to 2.5 µM

Q: Which EC50 does the source give for `CCCCCCCOc1ccc(-c2cnc(-c3ccc(C[C@H](NC(=O)c4ccc(C(C)(C)C)cc4)C(=O)NCC(=O)O)cc3)nc2)cc1` [Compound 297, (S)-(2-(4-(tert-butyl)benzamido)-3-(4-(5-(4-(heptyloxy)phenyl)pyrimidin-2-yl)phenyl)propanoyl)glycine] here?
A: < 0.8 µM

Q: For `CCCCCCCOc1ccc(-c2cnc(-c3ccc(C[C@H](NC(=O)c4ccc(C(C)(C)C)cc4)C(=O)NCCC(=O)O)cc3)nc2)cc1` [Compound 298, (S)-3-(2-(4-(tert-butyl)benzamido)-3-(4-(5-(4-(heptyloxy)phenyl)pyrimidin-2-yl)phenyl)propanamido)propanoic acid], which EC50 is on record?
A: < 0.8 µM

Q: `CCCCCCCOc1ccc(-c2cnc(-c3ccc(C[C@H](NC(=O)c4ccc(C(C)(C)C)cc4)C(=O)NS(C)(=O)=O)cc3)nc2)cc1` [Compound 299, (S)-4-(tert-butyl)-N-(3-(4 (5 (4 (heptyloxy)phenyl)pyrimidin-2-yl)phenyl)-1-(methylsulfonamido)-1-oxopropan-2-yl)benzamide] was tested. Which EC50 did it give?
A: < 0.8 µM

Q: How did the EC50 turn out when `CCCCCCCOc1ccc(-c2cnc(-c3ccc(C[C@H](NC(=O)c4ccc(C(C)(C)C)cc4)C(=O)N[C@@H](CC(N)=O)C(=O)O)cc3)nc2)cc1` [Compound 300] was run?
A: < 0.8 µM

Q: Which EC50 does the source give for `CCCCCCCOc1ccc(-c2cnc(-c3ccc(C[C@H](NC(=O)c4ccc(C(C)(C)C)cc4)C(=O)NCCCC(=O)O)cc3)nc2)cc1` [Compound 301] here?
A: 0.8 to 2.5 µM

Q: Which EC50 does the source give for `CCCCCCCOc1ccc(-c2cnc(-c3ccc(C[C@H](NC(=O)c4ccc(C(C)(C)C)cc4)C(=O)N(C)CCC(=O)O)cc3)nc2)cc1` [Compound 302] here?
A: 2.5 to 5 µM

Q: Which EC50 does the source give for `CCCCCCCOc1ccc(-c2cnc(-c3ccc(C[C@H](NC(=O)c4ccc(C(C)(C)C)cc4)C(=O)NCC(=O)Nc4nn[nH]n4)cc3)nc2)cc1` [Compound 303] here?
A: 0.8 to 2.5 µM

Q: For `CCCCCCCOc1ccc(-c2cnc(-c3ccc(C[C@H](NC(=O)c4ccc(C(C)(C)C)cc4)C(=O)N(C)CC(=O)O)cc3)nc2)cc1` [Compound 304], which EC50 is on record?
A: 0.8 to 2.5 µM

Q: Which EC50 does the source give for `CCCCCCCOc1ccc(-c2cnc(-c3ccc(C[C@H](NC(=O)c4ccc(C(C)C)cc4)C(=O)N[C@@H](C)C(=O)O)cc3)nc2)cc1` [Compound 305] here?
A: 0.8 to 2.5 µM

Q: With `CCCCCCCOc1ccc(-c2cnc(-c3ccc(C[C@H](NC(=O)c4ccc(C(C)C)cc4)C(=O)N[C@@H](CC(N)=O)C(=O)O)cc3)nc2)cc1` [Compound 306] as the compound, how does the EC50 read?
A: < 0.8 µM

Q: How did the EC50 turn out when `CCCCCCCOc1ccc(-c2cnc(-c3ccc(C[C@H](NC(=O)c4ccc(C(C)C)cc4)C(=O)N[C@@H](CC(=O)O)C(=O)O)cc3)nc2)cc1` [Compound 307] was run?
A: 0.8 to 2.5 µM

Q: With `CCCCCCCOc1ccc(-c2cnc(-c3ccc(C[C@H](NC(=O)c4ccc(C(C)C)cc4)C(=O)N[C@@H](CC(C)C)C(=O)O)cc3)nc2)cc1` [Compound 308] as the compound, how does the EC50 read?
A: 0.8 to 2.5 µM

Q: How did the EC50 turn out when `CCCCCCCOc1ccc(-c2cnc(-c3ccc(C[C@H](NC(=O)c4ccc(C(C)C)cc4)C(=O)N[C@@H](CO)C(=O)O)cc3)nc2)cc1` [Compound 309] was run?
A: < 0.8 µM

Q: For `CCCCCCCOc1ccc(-c2cnc(-c3ccc(C[C@H](NC(=O)c4ccc(C(C)C)cc4)C(=O)N[C@@H](CCCCN)C(=O)O)cc3)nc2)cc1` [Compound 310], which EC50 is on record?
A: < 0.8 µM

Q: How did the EC50 turn out when `CCCCCCCOc1ccc(-c2cnc(-c3ccc(C[C@H](NC(=O)c4ccc(C(C)C)cc4)C(=O)N[C@@H](Cc4cnc[nH]4)C(=O)O)cc3)nc2)cc1` [Compound 311] was run?
A: 0.8 to 2.5 µM

Q: How did the EC50 turn out when `CCCCCCCOc1ccc(-c2cnc(-c3ccc(C[C@H](NC(=O)c4ccc(C(C)C)cc4)C(=O)N[C@H](C)C(=O)O)cc3)nc2)cc1` [Compound 312] was run?
A: 0.8 to 2.5 µM

Q: Which EC50 does the source give for `CCCCCCCOc1ccc(-c2cnc(-c3ccc(C[C@H](NC(=O)c4ccc(C(C)C)cc4)C(=O)N[C@H](CC(C)C)C(=O)O)cc3)nc2)cc1` [Compound 313] here?
A: 0.8 to 2.5 µM

Q: `CCCCCCCOc1ccc(-c2cnc(-c3ccc(C[C@H](NC(=O)c4ccc(C(C)C)cc4)C(=O)N[C@H](CCCCN)C(=O)O)cc3)nc2)cc1` [Compound 314] was tested. Which EC50 did it give?
A: 0.8 to 2.5 µM

Q: With `CCCCCCCOc1ccc(-c2cnc(-c3ccc(C[C@H](NC(=O)c4ccc(C(C)C)cc4)C(=O)N[C@H](CO)C(=O)O)cc3)nc2)cc1` [Compound 315] as the compound, how does the EC50 read?
A: 0.8 to 2.5 µM

Q: `CCCCCCCOc1ccc(-c2cnc(-c3ccc(C[C@H](NC(=O)c4ccc(C(C)C)cc4)C(=O)N[C@H](Cc4cnc[nH]4)C(=O)O)cc3)nc2)cc1` [Compound 316] was tested. Which EC50 did it give?
A: < 0.8 µM

Q: Which EC50 does the source give for `CCCCCCCOc1ccc(-c2cnc(-c3ccc(C[C@H](NC(=O)c4ccc(C(C)C)cc4)C(=O)NCC(=O)O)cc3)nc2)cc1` [Compound 317] here?
A: < 0.8 µM

Q: With `CCCCCCOc1ccc(-c2cnc(-c3ccc(C[C@H](NC(=O)c4ccc(C(C)(C)C)cc4)C(=O)NCC(=O)O)cc3)nc2)cc1` [Compound 318] as the compound, how does the EC50 read?
A: < 0.8 µM

Q: Which EC50 does the source give for `CCCCCCCOc1ccc(-c2cnc(-c3ccc(C[C@H](NC(=O)c4ccc(C(C)(C)C)s4)C(=O)NCC(=O)O)cc3)nc2)cc1` [Compound 319, (S)-(2-(5-(tert-butyl)thiophene-2-carboxamido)-3-(4-(5-(4-(heptyloxy)phenyl)pyrimidin-2-yl)phenyl)propanoyl)glycine] here?
A: < 0.8 µM

Q: For `CCCCCCCOc1ccc(-c2cnc(-c3ccc(C[C@H](NC(=O)c4ccc(C(C)(C)C)s4)C(=O)N[C@@H](CCC(N)=O)C(=O)O)cc3)nc2)cc1` [Compound 320, ((S)-2-(5-(tert-butyl)thiophene-2-carboxamido)-3-(4-(5-(4-(heptyloxy)phenyl)pyrimidin-2-yl)phenyl)propanoyl)-L-glutamine], which EC50 is on record?
A: < 0.8 µM

Q: With `CCCCCCCOc1ccc(-c2cnc(-c3ccc(C[C@H](NC(=O)c4ccc(C(C)(C)C)s4)C(=O)N[C@@H](CC(N)=O)C(=O)O)cc3)nc2)cc1` [Compound 321] as the compound, how does the EC50 read?
A: < 0.8 µM

Q: With `CCCCCCCOc1ccc(-c2cnc(-c3ccc(C[C@H](NC(=O)c4ccc(C(C)(C)C)s4)C(=O)N[C@@H](CC(=O)O)C(=O)O)cc3)nc2)cc1` [Compound 322] as the compound, how does the EC50 read?
A: 0.8 to 2.5 µM

Q: With `CCCCCCCOc1ccc(-c2cnc(-c3ccc(C[C@H](NC(=O)c4ccc(C(C)(C)C)s4)C(=O)N[C@H](CO)C(=O)O)cc3)nc2)cc1` [Compound 323] as the compound, how does the EC50 read?
A: < 0.8 µM

Q: Which EC50 does the source give for `CCCCCCCOc1ccc(-c2cnc(-c3ccc(C[C@H](NC(=O)c4ccc(C(C)(C)C)s4)C(=O)N[C@H](CC(=O)O)C(=O)O)cc3)nc2)cc1` [Compound 324] here?
A: 0.8 to 2.5 µM

Q: For `CCCCCCCOc1ccc(-c2cnc(-c3ccc(C[C@H](NC(=O)c4ccc(C(C)(C)C)s4)C(=O)N[C@H](Cc4cnc[nH]4)C(=O)O)cc3)nc2)cc1` [Compound 325], which EC50 is on record?
A: 5 to 10 µM

Q: How did the EC50 turn out when `CCCCCCCOc1ccc(-c2cnc(-c3ccc(C[C@H](NC(=O)c4ccc(C(C)(C)C)s4)C(=O)N[C@@H](CO)C(=O)O)cc3)nc2)cc1` [Compound 326] was run?
A: < 0.8 µM

Q: `CCCCCCCOc1ccc(-c2cnc(-c3ccc(C[C@H](NC(=O)c4ccc(C(C)(C)C)s4)C(=O)N[C@H](C)C(=O)O)cc3)nc2)cc1` [Compound 327] was tested. Which EC50 did it give?
A: < 0.8 µM

Q: With `CCCCCCCOc1ccc(-c2cnc(-c3ccc(C[C@H](NC(=O)c4ccc(C(C)(C)C)s4)C(=O)N4CCC[C@H]4C(=O)O)cc3)nc2)cc1` [Compound 328] as the compound, how does the EC50 read?
A: 0.8 to 2.5 µM
